The results in this text go back to ChEMBL document CHEMBL1240489, “Discovery of N-{1-[3-(3-oxo-2,3-dihydrobenzo[1,4]oxazin-4-yl)propyl]piperidin-4-yl}-2-phenylacetamide (Lu AE51090): an allosteric muscarinic M1 receptor agonist with unprecedented selectivity and procognitive potential” (J Med Chem, 2010).

The target of data set [1] is T1, Muscarinic acetylcholine receptor M4 (Homo sapiens, UniProt P08173).
T1 sequence (P08173 whole entry): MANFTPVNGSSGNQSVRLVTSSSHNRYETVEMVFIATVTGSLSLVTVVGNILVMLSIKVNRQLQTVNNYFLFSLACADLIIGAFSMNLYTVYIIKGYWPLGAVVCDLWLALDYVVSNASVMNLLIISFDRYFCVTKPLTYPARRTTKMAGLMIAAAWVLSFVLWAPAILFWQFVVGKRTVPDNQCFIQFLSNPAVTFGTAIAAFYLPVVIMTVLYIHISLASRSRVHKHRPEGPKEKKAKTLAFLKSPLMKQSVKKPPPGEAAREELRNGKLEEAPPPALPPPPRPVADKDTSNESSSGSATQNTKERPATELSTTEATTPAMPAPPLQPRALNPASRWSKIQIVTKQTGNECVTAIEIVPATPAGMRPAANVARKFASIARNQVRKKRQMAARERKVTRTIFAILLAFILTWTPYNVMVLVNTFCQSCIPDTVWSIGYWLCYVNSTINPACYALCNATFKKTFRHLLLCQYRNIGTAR
Nature of the data set: Displacement of [3H]-4-DAMP from human muscarinic M4 receptor expressed in BHK-21 cells. The data set is classed as cell-based. Background: Loss of bound radioactivity is the signal in a displacement assay; it reports binding, not function.

Data set [2] concerns the target Melatonin receptor type 1A (Homo sapiens, UniProt P48039). Nature of the data set: Binding affinity to human MT1 receptor by radioligand displacement assay.
The subject of data set [3] is Mus musculus. Nature of the data set: Reversal of 60 seconds delay-induced memory decay in sc dosed C57Bl/6J mouse assessed as positive alteration administered for 1 week by Y-maze test. Type of data set: functional, organism-based.
Another data set addresses Cannabinoid receptor 1 (Homo sapiens, UniProt P21554). As to the kind of experiment: Binding affinity to human CB1 receptor by radioligand displacement assay.
For data set [4], the system named is Mus musculus. As to the kind of experiment: Reversal of 60 seconds delay-induced memory decay in C57Bl/6J mouse assessed as positive alteration at 10 to 20 mg/kg, sc for 1 week by Y-maze test. The data set is classed as functional, organism-based.
Data set [5] has as its target Tyrosine-protein kinase Lyn (Homo sapiens, UniProt P07948). Nature of the data set: Binding affinity to Lyn by enzyme assay.
In data set [6] the target is T2, Muscarinic acetylcholine receptor M2 (Homo sapiens, UniProt P08172).
T2 sequence (P08172 whole entry): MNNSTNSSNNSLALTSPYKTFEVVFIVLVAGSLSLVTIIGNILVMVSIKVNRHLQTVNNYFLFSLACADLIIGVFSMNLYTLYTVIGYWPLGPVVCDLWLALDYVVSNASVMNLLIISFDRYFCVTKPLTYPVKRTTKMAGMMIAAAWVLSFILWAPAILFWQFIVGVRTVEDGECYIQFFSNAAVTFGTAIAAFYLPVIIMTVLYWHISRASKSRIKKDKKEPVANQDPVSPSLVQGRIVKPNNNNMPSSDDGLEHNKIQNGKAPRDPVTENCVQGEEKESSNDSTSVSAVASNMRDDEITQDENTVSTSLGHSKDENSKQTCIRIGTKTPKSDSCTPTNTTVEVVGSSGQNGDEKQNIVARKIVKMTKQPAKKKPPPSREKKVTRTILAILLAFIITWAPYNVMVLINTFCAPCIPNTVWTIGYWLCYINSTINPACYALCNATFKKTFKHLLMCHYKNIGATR
Nature of the data set: Binding affinity to human muscarinic M2 receptor by radioligand displacement assay.

The target of another data set is Melanocortin receptor 4 (Homo sapiens, UniProt P32245). Nature of the data set: Binding affinity to human MC4 receptor by radioligand displacement assay.
Sequence of Melanocortin receptor 4 (P32245 whole entry): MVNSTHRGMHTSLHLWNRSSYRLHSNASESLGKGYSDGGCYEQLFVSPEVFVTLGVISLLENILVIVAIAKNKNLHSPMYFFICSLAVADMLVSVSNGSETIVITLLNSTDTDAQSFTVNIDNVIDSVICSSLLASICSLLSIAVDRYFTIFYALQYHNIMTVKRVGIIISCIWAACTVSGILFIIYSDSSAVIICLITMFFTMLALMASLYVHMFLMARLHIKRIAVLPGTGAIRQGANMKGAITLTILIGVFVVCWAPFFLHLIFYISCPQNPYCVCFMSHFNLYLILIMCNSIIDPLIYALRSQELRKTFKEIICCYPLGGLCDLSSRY
For the next data set, the target named is Mu-type opioid receptor (Homo sapiens, UniProt P35372). Nature of the data set: Binding affinity to human mu opioid receptor agonist site by radioligand displacement assay.
Sequence of Mu-type opioid receptor (P35372 whole entry): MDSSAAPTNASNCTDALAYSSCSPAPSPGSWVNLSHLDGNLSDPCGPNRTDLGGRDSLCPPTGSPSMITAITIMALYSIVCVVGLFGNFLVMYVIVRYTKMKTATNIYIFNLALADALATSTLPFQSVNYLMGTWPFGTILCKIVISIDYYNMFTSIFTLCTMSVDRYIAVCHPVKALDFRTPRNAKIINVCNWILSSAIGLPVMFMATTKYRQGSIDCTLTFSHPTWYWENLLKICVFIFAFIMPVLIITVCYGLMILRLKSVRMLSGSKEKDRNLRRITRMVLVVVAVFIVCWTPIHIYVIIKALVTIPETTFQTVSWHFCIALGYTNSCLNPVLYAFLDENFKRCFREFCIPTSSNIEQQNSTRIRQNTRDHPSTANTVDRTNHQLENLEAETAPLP
In the next data set the target is D(1A) dopamine receptor (Homo sapiens, UniProt P21728). As to the kind of experiment: Binding affinity to human dopamine D1 receptor by radioligand displacement assay.
Sequence of D(1A) dopamine receptor (P21728 whole entry): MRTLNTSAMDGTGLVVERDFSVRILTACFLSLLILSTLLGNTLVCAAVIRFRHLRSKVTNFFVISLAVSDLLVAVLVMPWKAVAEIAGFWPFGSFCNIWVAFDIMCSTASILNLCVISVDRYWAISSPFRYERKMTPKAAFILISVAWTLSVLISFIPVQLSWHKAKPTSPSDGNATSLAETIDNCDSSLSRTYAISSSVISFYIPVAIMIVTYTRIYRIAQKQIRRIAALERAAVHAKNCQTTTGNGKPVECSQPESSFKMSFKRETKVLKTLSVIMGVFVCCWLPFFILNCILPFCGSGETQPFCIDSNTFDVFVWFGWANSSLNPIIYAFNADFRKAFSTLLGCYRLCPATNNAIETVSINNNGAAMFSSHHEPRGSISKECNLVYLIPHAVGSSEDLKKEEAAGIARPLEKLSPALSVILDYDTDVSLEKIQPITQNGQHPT
Data set [7] deals with T3, Muscarinic acetylcholine receptor M2 (Homo sapiens) (UniProt P08172).
T3 sequence (whole entry): T2 sequence (P08172 whole entry)
As to the kind of experiment: Agonist activity at human muscarinic M2 receptor expressed in CHO-K1 cells coexpressing Galpha16 subunit assessed as increase of acetylcholine-induced calcium flux at 10 uM by FLIPR assay relative to acetylcholine. Type of data set: functional, cell-based. In general terms: Calcium assays in cells follow changes in intracellular calcium, usually with a dye or a luminescent sensor.

In data set [8] the target is 5-hydroxytryptamine receptor 4 (Homo sapiens, UniProt Q13639). Nature of the data set: Binding affinity to human 5-HT4e receptor by radioligand displacement assay.
Sequence of 5-hydroxytryptamine receptor 4 (Q13639 whole entry): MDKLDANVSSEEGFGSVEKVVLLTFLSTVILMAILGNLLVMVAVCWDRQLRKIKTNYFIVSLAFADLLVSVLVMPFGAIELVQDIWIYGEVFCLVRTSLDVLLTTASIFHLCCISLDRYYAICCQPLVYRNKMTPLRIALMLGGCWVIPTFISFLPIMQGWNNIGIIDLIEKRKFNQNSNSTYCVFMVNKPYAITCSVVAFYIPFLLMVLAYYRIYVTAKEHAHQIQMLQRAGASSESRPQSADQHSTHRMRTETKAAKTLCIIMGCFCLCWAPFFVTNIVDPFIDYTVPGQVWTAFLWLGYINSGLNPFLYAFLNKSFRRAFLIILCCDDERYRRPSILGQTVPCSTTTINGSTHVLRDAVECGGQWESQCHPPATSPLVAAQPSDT
Data set [9] concerns the target 5-hydroxytryptamine receptor 2A (Homo sapiens, UniProt P28223). As to the kind of experiment: Binding affinity to human 5-HT2A agonist site receptor by radioligand displacement assay.
The next data set deals with Histamine H3 receptor (Homo sapiens, UniProt Q9Y5N1). Nature of the data set: Binding affinity to human histamine H3 receptor by radioligand displacement assay.
Sequence of Histamine H3 receptor (Q9Y5N1 whole entry): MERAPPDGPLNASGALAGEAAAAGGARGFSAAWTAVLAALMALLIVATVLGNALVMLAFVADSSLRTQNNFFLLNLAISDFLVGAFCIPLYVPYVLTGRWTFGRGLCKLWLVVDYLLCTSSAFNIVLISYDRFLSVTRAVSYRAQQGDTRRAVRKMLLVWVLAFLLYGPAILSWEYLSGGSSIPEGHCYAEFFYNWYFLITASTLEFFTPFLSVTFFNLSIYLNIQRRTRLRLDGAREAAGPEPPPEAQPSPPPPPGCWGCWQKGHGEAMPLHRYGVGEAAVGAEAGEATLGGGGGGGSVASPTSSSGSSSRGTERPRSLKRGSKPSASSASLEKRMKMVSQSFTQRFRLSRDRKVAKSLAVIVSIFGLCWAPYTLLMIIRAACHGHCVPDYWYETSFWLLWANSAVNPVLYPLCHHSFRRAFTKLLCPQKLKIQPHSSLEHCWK
Data set [10] concerns the target Beta-2 adrenergic receptor (Homo sapiens, UniProt P07550). As to the kind of experiment: Binding affinity to adrenergic beta2 receptor by radioligand displacement assay.
Data set [11] is described as follows: Oral bioavailability in rat plasma at 2 mg/kg. The data set is classed as ADME, organism-based.
Data set [12] can be described thus: Binding affinity to GABA transporter by radioligand displacement assay.
A further data set concerns the target D(2) dopamine receptor (Homo sapiens, UniProt P14416). As to the kind of experiment: Binding affinity to human dopamine D2S receptor by radioligand displacement assay.
For data set [13], the target named is 5-hydroxytryptamine receptor 2B (Homo sapiens, UniProt P41595). As to the kind of experiment: Binding affinity to human 5-HT2B agonist site receptor by radioligand displacement assay.
Sequence of 5-hydroxytryptamine receptor 2B (P41595 whole entry): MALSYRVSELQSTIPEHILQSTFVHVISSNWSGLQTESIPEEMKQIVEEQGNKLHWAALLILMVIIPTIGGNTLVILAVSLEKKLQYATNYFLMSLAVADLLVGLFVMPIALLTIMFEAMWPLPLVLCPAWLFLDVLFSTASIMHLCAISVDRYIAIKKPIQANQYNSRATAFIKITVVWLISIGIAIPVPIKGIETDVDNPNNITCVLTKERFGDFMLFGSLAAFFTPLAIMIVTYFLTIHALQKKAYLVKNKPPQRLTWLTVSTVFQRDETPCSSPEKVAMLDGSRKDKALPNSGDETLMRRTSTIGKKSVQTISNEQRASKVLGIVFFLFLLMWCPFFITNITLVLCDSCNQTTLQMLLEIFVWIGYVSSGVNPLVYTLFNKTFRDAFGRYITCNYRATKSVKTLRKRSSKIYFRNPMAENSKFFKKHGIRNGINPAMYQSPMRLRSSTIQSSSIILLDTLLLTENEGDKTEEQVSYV
The next data set relates to Hepatocyte. As to the kind of experiment: Intrinsic clearance in human hepatocytes at 1 uM after up to 120 mins by LC/MS-MS analysis. Type of data set: ADME, cell-based, Liver. The settings on record: 2 h.
The target of another data set is Adenosine receptor A1 (Homo sapiens, UniProt P30542). Nature of the data set: Binding affinity to human adenosine A1 receptor agonist site by radioligand displacement assay.
Sequence of Adenosine receptor A1 (P30542 whole entry): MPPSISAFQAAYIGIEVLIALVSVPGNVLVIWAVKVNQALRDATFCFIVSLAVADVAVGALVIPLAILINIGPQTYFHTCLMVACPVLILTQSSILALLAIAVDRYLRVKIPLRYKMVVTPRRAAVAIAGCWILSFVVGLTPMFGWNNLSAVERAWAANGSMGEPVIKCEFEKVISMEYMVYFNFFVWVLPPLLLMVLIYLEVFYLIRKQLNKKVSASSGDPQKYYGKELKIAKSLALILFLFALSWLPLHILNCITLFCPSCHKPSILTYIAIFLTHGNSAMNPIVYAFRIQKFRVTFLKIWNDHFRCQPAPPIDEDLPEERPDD

Calls of active or inactive are those of the source. No cut-off for these calls is given here. Some results are limits rather than exact numbers.

Sequence of D(2) dopamine receptor (P14416 whole entry): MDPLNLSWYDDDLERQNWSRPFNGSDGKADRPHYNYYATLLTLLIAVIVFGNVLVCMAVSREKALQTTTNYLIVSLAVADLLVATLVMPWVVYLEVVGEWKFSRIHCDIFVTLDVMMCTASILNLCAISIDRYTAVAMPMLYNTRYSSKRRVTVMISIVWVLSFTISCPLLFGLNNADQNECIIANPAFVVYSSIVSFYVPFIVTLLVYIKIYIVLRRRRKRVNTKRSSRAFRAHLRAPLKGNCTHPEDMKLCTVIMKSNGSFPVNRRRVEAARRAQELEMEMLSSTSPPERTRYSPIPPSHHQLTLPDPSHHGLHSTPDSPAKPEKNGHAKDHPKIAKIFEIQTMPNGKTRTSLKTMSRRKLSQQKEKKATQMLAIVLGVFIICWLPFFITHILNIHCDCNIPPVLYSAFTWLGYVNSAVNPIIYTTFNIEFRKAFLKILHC
Sequence of Cannabinoid receptor 1 (P21554 whole entry): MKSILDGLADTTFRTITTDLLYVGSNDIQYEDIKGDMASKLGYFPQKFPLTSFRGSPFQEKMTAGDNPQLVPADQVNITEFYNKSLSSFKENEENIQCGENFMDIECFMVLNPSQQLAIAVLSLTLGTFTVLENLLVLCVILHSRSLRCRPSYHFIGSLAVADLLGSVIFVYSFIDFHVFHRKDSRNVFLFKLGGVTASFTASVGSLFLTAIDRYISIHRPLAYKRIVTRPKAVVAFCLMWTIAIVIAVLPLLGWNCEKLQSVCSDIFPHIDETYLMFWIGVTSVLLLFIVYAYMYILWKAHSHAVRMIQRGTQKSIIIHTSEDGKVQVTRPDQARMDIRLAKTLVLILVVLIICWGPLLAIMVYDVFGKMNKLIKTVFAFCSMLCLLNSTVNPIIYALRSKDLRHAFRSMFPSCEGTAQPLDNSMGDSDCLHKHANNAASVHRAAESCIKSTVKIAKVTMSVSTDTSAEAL
Sequence of Melatonin receptor type 1A (P48039 whole entry): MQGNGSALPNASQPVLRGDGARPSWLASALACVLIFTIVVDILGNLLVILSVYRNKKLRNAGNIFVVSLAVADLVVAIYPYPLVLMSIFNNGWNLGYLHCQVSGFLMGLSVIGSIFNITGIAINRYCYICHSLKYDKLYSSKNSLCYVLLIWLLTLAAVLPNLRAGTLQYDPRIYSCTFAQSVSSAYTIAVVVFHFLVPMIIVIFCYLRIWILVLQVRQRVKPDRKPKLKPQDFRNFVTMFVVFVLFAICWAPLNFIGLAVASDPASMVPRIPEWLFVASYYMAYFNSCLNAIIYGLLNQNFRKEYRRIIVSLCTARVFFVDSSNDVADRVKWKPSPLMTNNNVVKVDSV
Sequence of Tyrosine-protein kinase Lyn (P07948 whole entry): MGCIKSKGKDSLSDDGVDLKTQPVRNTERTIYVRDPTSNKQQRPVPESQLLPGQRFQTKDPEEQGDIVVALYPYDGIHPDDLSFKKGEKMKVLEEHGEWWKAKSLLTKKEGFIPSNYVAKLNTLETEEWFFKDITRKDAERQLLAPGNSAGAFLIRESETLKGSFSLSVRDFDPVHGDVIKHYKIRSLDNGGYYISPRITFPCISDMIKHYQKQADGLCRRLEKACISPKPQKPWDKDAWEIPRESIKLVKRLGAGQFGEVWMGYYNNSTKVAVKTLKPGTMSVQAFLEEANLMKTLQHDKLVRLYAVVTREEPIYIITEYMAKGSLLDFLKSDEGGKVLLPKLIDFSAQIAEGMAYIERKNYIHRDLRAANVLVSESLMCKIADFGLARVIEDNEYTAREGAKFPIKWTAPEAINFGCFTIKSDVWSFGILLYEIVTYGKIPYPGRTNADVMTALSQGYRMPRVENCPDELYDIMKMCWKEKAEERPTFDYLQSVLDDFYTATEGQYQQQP

Broadly, the Ki is the dissociation constant of the complex between target and ligand, obtained from inhibition or displacement. A higher Ki goes with weaker binding. Broadly, the Emax is the greatest response seen or fitted, relative to the assay's reference. By bioavailability is commonly meant dose-corrected exposure relative to a reference, in per cent. A higher bioavailability goes with much systemic uptake. In the case of `O=C(Cc1ccccc1)NC1CCN(CCCN2C(=O)COc3ccccc32)CC1`, the inhibition constant Ki in [1] is 6.9 µM; in [2] it was at least 1000 nM; on Cannabinoid receptor 1, at least 1000 nM; in [5], at least 1000 nM; in data set [6], at least 1000 nM; on Melanocortin receptor 4, at least 1000 nM. Besides, the Ki (on Mu-type opioid receptor; on D(1A) dopamine receptor; in data set [8]; in [9]; at Histamine H3 receptor; in data set [10]) was at least 1000 nM each time. In addition, the Ki (in data set [12]; at D(2) dopamine receptor; in [13]; at Adenosine receptor A1) was at least 1000 nM in each case. For the same molecule, the Activity result in the data set with Mus musculus [3] was “Dose-dependent effect”. In the data set on Mus musculus [4], the result was Active. For the same molecule, the maximal response (Emax) in [7] amounted to 0%. In data set [11], this molecule registered a bioavailability of 4%. Further, the CL in the data set on Hepatocyte amounted to 3.4 L/min.
